Laboratory results from US11977086B2, “Biomarker detection from breath samples” (Hound Labs, Inc., priority 2019, dated 2024).

Columns and labels:
[1] = THC in breath after smoking, samples collected with a Hound Labs device and analyzed by mass spectrometry; format: in vivo, human
[2] = pH>8; cited from earlier work
[3] = compared with THC; cited from earlier work

| Structure (SMILES) | measured amount of THC in breath sample indicative of recent usage ([1]; breath sample of 0.5 liters, usage within the three hours prior to collection) | baseline breath THC, maximum ([1]; chronic or frequent smokers who have not smoked for several hours) [pg/5 L breath] | maximum baseline breath THC per liter ([1]; chronic users, 12 pg/5 L converted to per liter) [pg/L] | time THC is detected in breath after smoking ([1]; on average, 430 tests, smoking indoors or outdoors, mass spectrometry) [h] | solubility versus pH [2] | resistance to oxidation [3] |
| --- | --- | --- | --- | --- | --- | --- |
| CCCCCc1cc(O)c2c(c1)OC(C)(C)[C@@H]1CCC(C)=C[C@@H]21 [THC, tetrahydrocannabinol] | 1-10 picograms (pg) | ≤ 12 | ≤ 2.4 | 2 to 3 | higher solubility | – |
| CCCCCc1cc2c(c(O)c1C(=O)O)[C@@H]1C=C(C)CC[C@H]1C(C)(C)O2 [THCA] | – | – | – | – | – | higher resistance to oxidation |
